Reference: patent US20140303090A1, “Smac Mimetic Therapy” (TETRALOGIC PHARMACEUTICALS CORPORATION, priority 2013, published 2014)
Where two headings read alike, the source gives them in different places.

Tests used:
[1] = target: XIAP BIR3 (Homo sapiens, UniProt P98170); test: Fluorescence polarization displacement assay, XIAP BIR3
Excerpt: (§7) To establish protein-ligand binding affinity, we employed a fluorescence polarization assay. This assay monitored the displacement of an IAP binding motif (IBM)-containing peptide, Abu-RPFK(5-carboxyfluorescein)-NH2, from the Type III BIR domains of cIAP1, cIAP2, XIAP, and ML-IAP.

[2] = tested on: DAP-mediated NF-κB-luc (NOD1); test: DAP-stimulated NF-kB luciferase reporter gene assay (NOD1 signaling) in HCT116 cells; format: cell-based, human; settings: for Inhibition of DAP-mediated NF-κB-luc, % Inhibition: 10 μM Smac mimetic, HCT116 cells
Procedure: (§1) To assay effects on XIAP E3 ubiquitin ligase activity manifested as NF-kB activation, we established both DAP- and MDP-stimulated luciferase reporter gene assays in which Smac mimetics are evaluated in cells at a single 10 μM drug concentration. Specifically, we developed stable cell lines with HCT116 cells (human colon cancer) that carry the NF-kB-luciferase reporter gene under the regulation of NF-kB promoter activation elements. The assay was carried out as follows: • 1. HCT116 (3-3) cells were cultured in white wall 96-wells plate (50,000 cells/50 μL/well) for overnight at 37° C. • 2. […] The luciferase activity in each well was measured by using Steady-Glo® Luciferase Assay System (Promega Corp.). 48 μL of luminescence detection reagent was added in each well, followed by brief agitation. The plate was left in dark for 15 minutes and then the luminescence activity was measured by using microplate reader Victor2 (PerkinElmer Life and Analytical Science, Shelton, Conn.). • 4. Calculation:
(§2) Luciferase activity in no ligand (i.e., […]) treatment wells=background (BG)
(§3) Luciferase activity in ligand only treatment wells=positive control (PC)
(§4) Luciferase activity in Smac mimetic (SM)+ligand treatment wells=Test • i) Test<PC
(§5) Inhibitory activity by SM(%)=100×[(PC−Test)/(PC−BG)] • ii) Test>PC
(§6) Activation by SM(%)=100×[(Test−BG)/(PC−BG)]

[3] = tested on: MDP-mediated NF-κB-luc (NOD2); test: MDP-stimulated NF-kB luciferase reporter gene assay (NOD2 signaling) in HCT116 cells; format: cell-based, human; settings: for Inhibition of MDP-mediated NF-κB-luc, % Inhibition: 10 μM Smac mimetic, HCT116 cells
Procedure: as §1, §2, §3, §4, §5, §6

[4] = target: T1, GFP-cIAP2 (Homo sapiens, UniProt Q13489); test: GFP-cIAP2 degradation assay (loss of GFP signal, flow cytometry); format: cell-based; settings: read-out: ΔGFP-cIAP2 EC50, 24 h
T1 construct: expressed in transfected cells

[5] = tested on: TNF-mediated NF-κB-luc
[6] = target: T1, GFP-cIAP2; test: GFP-cIAP2 degradation assay (loss of GFP signal, flow cytometry); format: cell-based
Excerpt: In this assay, treatment of GFP-cIAP-expressing melanoma cell line A375 with Smac mimetic, Compound 15, for two hours, results in degradation of cIAP-1 and cIAP-2 with concomitant loss of GFP-signal.

[7] = target: cIAP-1 (cytoplasmic and TRAF2-bound) (Homo sapiens, UniProt Q13490); test: Co-immunoprecipitation and western blot, cytoplasmic versus TRAF2-bound cIAP-1 in GFP-cIAP-1 A375 cells; settings: 100 nM, 0 to 240 minutes, visual
Procedure: (§8) The stable cell lines expressing GFP-cIAP-1 or GFP-cIAP-2 were cultured in 10 cm dishes in sub-confluence overnight. […] The lysate was cleared by centrifugation (14000 rpm) at 4° C. for 10 minutes and the supernatant was subjected to the co-immunoprecipitation experiment. The protein concentration of the supernatant was measured by using Bradford reagent (Sigma). Co-immunoprecipitation was carried out with 600 μg of the total protein and 1 μg of anti-TRAF 2 antibody (Cell Signaling). After the incubation at 4° C. for overnight, 25 μL protein A/G beads (Invitrogen) was added to precipitate the immunocomplex. The beads were washed with the lysis buffer three times, followed by dissolving with 25 μL SDS-Loading buffer (Invitrogen).
(§9) The membrane was soaked with the blocking buffer (LICOR) for 30 minutes, followed by incubation with the primary antibodies, cIAP-1 and cIAP-2 (R&D Systems), at 4° C. for overnight. After the incubation, the membrane was washed three times with TBS-T buffer (Invitrogen) and incubated with IRDye anti-goat antibody (LICOR) at 37° C. for 45 minutes. Following 5 times washings, the membrane was scanned by The Odyssey Infrared Imaging System (LICOR).

[8] = target: cytoplasmic cIAP-2 (Homo sapiens, UniProt Q13489); test: Western blot of cytoplasmic cIAP-2 in GFP-cIAP-2 A375 cells; settings: 100 nM, 0 to 240 minutes
Procedure: as §8, §9

[9] = tested on: xenograft; settings: cited from earlier work
[10] = target: TRAF2-bound cIAP-2 (Homo sapiens, UniProt Q13489); test: Anti-TRAF2 co-immunoprecipitation and western blot of TRAF2-bound cIAP-2 in GFP-cIAP-2 A375 cells; settings: 100 nM, 0 to 240 minutes
Procedure: as §8, §9

[11] = cited from earlier work
[12] = tested on: WT murine BMDMs; test: IL-1β secretion from LPS-primed WT bone marrow-derived macrophages; format: cell-based; settings: 24 h
Excerpt: Given the heightened activity of 2 versus 1 on cIAP2, we speculated that the improved tolerability of 1 might also be associated with reduced antagonism of XIAP functional activity in this system. We thus evaluated a selection of Smac-mimetics in both LPS-primed wild-type (WT) and XIAP knockout (Xiap^−/−) murine BMDMs to assess their capacity to induce the secretion of IL-1β following treatment with Smac-mimetic (FIG. 4).
WT and Xiap^−/− BMDMs were primed with LPS±the indicated concentration of Smac-mimetics for 24 h. WT BMDM results are presented as the mean±SEM (n=3 biological independent repeats). […] Total levels of IL-1β induced by Smac-mimetics in these assays varied but the trend was identical.

[13] = target: cIAP2 BIR3 (Homo sapiens, UniProt Q13489); test: Fluorescence polarization displacement assay, cIAP2 BIR3; settings: for Ki: read-out: cIAP2 BIR3, Ki
Excerpt: as §7

[14] = Tolerability; settings: in vivo
Excerpt: . Binding of IAP antagonists to cIAP1 proteins induces a conformational rearrangement that exposes the RING domain. Once exposed, the RING domain dimerizes and E3 ubiquitin ligase activity is activated. Using a range of assays that evaluated cIAP1 stability; NF-κB activation; cIAP1 oligomeric state; […]. Birinapant-induced loss of cIAPs correlated with inhibition of TNF-mediated NF-κB activation, caspase activation, tumor cell killing, and tumor regression. Birinapant was well-tolerated. […]. […]; (ii.) decreased affinity for XIAP BIR3; (iii.) decreased ability to inhibit XIAP-dependent NOD signaling, despite its activity in an XIAP-dependent caspase-3 activation assay; and, (iv.) decreased pro-inflammatory IL-1β secretion. […]

[15] = tested on: Xiap−/− murine BMDMs; test: IL-1β secretion from LPS-primed XIAP knockout bone marrow-derived macrophages; format: cell-based; settings: 24 h
Procedure: We thus evaluated a selection of Smac-mimetics in both LPS-primed wild-type (WT) and XIAP knockout (Xiap^−/−) murine BMDMs to assess their capacity to induce the secretion of IL-1β following treatment with Smac-mimetic (FIG. 4).
WT and Xiap^−/− BMDMs were primed with LPS±the indicated concentration of Smac-mimetics for 24 h. WT BMDM results are presented as the mean±SEM (n=3 biological independent repeats).

[16] = read-out: ΔGFP-cIAP2 EC50, 2 h, 2 h, A375 cells

cIAP2 BIR3, sequence (Q13489 238-349 limits assumed): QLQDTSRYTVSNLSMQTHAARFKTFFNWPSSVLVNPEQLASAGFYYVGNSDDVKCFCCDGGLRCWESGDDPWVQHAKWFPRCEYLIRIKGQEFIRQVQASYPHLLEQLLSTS
T1 sequence (Q13489 whole entry): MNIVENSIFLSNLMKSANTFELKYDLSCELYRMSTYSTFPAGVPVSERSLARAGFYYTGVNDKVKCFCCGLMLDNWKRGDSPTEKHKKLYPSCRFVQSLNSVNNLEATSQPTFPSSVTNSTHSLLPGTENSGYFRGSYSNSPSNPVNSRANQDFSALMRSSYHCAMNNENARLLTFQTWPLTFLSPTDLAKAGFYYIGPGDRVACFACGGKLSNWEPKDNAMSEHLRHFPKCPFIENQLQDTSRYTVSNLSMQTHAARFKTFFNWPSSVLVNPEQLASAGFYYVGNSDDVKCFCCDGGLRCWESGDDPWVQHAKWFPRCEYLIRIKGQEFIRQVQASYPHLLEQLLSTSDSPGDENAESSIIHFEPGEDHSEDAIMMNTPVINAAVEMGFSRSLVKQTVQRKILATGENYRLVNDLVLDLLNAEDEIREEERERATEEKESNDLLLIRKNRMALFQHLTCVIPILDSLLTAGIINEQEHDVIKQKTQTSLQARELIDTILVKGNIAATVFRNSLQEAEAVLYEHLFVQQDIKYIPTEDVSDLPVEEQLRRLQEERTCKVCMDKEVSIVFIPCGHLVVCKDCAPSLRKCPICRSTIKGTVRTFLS
XIAP BIR3, sequence (P98170 241-356 limits assumed): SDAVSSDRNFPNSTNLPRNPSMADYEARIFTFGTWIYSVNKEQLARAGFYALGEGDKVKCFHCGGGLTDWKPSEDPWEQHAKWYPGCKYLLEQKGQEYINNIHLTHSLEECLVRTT
cytoplasmic cIAP-2, sequence (Q13489 whole entry): as the sequence (Q13489 whole entry) above
TRAF2-bound cIAP-2, sequence (Q13489 whole entry): as above
TRAF2-bound cIAP-2, sequence (Q12933 whole entry partner): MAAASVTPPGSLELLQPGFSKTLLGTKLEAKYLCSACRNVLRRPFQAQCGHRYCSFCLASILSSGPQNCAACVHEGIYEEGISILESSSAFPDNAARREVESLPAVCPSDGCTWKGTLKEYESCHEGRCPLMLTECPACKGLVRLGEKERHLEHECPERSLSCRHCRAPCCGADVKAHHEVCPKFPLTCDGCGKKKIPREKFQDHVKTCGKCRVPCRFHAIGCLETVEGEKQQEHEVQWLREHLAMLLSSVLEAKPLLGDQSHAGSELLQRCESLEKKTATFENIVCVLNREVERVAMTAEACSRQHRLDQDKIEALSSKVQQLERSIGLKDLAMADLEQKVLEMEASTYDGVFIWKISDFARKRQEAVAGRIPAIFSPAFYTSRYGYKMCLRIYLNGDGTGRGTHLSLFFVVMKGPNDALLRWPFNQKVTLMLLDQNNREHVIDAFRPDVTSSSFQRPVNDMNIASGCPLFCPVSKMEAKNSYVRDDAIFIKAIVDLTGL
cIAP-1 (cytoplasmic and TRAF2-bound), sequence (Q13490 whole entry): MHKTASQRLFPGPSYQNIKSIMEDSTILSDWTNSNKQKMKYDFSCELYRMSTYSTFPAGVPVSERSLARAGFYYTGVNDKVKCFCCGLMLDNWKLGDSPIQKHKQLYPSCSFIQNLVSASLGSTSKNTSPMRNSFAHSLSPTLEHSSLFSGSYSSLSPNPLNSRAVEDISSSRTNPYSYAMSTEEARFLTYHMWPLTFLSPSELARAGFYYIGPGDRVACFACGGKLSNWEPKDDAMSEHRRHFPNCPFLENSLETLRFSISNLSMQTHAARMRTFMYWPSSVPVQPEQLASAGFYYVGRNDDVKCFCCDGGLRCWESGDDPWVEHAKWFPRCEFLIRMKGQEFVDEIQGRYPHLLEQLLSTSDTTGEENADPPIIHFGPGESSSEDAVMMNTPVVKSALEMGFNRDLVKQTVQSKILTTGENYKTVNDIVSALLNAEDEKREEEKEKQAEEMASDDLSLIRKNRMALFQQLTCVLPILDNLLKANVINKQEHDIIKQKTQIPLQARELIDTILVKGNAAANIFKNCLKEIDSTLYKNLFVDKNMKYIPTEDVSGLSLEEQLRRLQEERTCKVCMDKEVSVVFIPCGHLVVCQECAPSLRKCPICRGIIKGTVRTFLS

Compound: CN[C@@H](C)C(=O)N[C@H](C(=O)N1C[C@@H](O)C[C@H]1Cc1c(Cc2[nH]c3cc(F)ccc3c2C[C@@H]2C[C@H](O)CN2C(=O)[C@@H](NC(=O)[C@H](C)NC)C(C)(C)C)[nH]c2cc(F)ccc12)C(C)(C)C [(11)]
- Kd [1]: < 0.001 µM
- Inhibition of DAP-mediated NF-κB-luc, % Inhibition [2]: 100 (n = 1) %
- Inhibition of MDP-mediated NF-κB-luc, % Inhibition [3]: 100 (n = 2) %

Compound: CC[C@H](NC(=O)[C@H](C)NC)C(=O)N1C[C@@H](O)C[C@H]1Cc1c(-c2[nH]c3cc(F)ccc3c2C[C@@H]2C[C@H](O)CN2C(=O)[C@@H](CC)NC(=O)[C@H](C)NC)[nH]c2cc(F)ccc12 [compound 3]
- DC50 [4]: 4.93 ± 1.6 µM
- EC50 [5]: 1.73 ± 0.985 µM
- reduced ability to degrade GFP-cIAP2 relative to 1 [6]: 100 fold
- DC50 [6, 16]: > 10 µM
- Inhibition of MDP-mediated NF-KB-luc @ 2 h, % Inhibition [3]: No

Compound: CN[C@@H](C)C(=O)N[C@H](C(=O)N1C[C@@H](O)C[C@H]1Cc1c(-c2[nH]c3cc(F)ccc3c2C[C@@H]2C[C@H](O)CN2C(=O)[C@@H](NC(=O)[C@H](C)NC)[C@@H](C)OC)[nH]c2cc(F)ccc12)[C@@H](C)OC [Compound 5]
- extent of degradation of cytoplasmic cIAP-1 versus cIAP-1 bound to TRAF2 [7]: approximately the same
- degradation of cytoplasmic cIAP-2 [8]: degraded
- antitumor activity compared to Compound 15 [9]: comparable antitumor activity
- degradation of TRAF2-bound cIAP-2 [10]: degraded
- tolerability in rats compared to Compound 15 [11]: less well-tolerated

Compound: CC[C@H](NC(=O)[C@H](C)NC)C(=O)N1C[C@@H](O)C[C@H]1Cc1c(-c2[nH]c3cc(F)ccc3c2C[C@@H]2C[C@H](O)CN2C(=O)[C@H](CC)NC(=O)[C@H](C)NC)[nH]c2cc(F)ccc12 [birinapant (1), birinapant]
- EC50 [4]: 0.151 ± 0.086 µM
- degradation of cytoplasmic cIAP-2 [8]: substantially non-degraded
- IL-1β secretion from LPS-primed WT BMDMs [12]: no increase in IL-1β secretion
- reduction of affinity for cIAP2 BIR3 compared with Compound A [13]: approximately 40 fold
- Ki [13]: 0.036 µM
- Ki ([13]; listed as Birinapant): ~0.036 µM
- EC50 [5]: 0.009 ± 0.005 µM
- EC50 [6, 16]: 0.108 ± 0.046 µM
- degradation of TRAF2-bound cIAP-2 [10]: degraded
- tolerability [14]: well-tolerated
- Inhibition of DAP-mediated NF-κB-luc, % Inhibition ([2]; listed as 1): ca. 35%
- Inhibition of DAP-mediated NF-κB-luc, % Inhibition ([2]; listed as Birinapant (1)): 35 (+/−16) %
- Inhibition of DAP-mediated NF-KB-luc @ 2 h, % Inhibition ([2]; @ 2 h): 35 ± 16%
- IL-1β secretion in Xiap−/− BMDMs [15]: induced IL-1β secretion
- Inhibition of MDP-mediated NF-κB-luc, % Inhibition ([3]; listed as 1): ca. 35%
- Inhibition of MDP-mediated NF-κB-luc, % Inhibition ([3]; listed as Birinapant (1)): 35 (+/−14) %
- Inhibition of MDP-mediated NF-KB-luc @ 2 h, % Inhibition [3]: 35 ± 14%

Compound: CC[C@@H](NC(=O)[C@H](C)NC)C(=O)N1C[C@@H](O)C[C@H]1Cc1c(-c2[nH]c3cc(F)ccc3c2C[C@@H]2C[C@H](O)CN2C(=O)[C@@H](CC)NC(=O)[C@H](C)NC)[nH]c2cc(F)ccc12 [compound 4]
- DC50 [4]: 5.54 ± 0.115 µM
- EC50 [5]: 4.98 ± 0.996 µM
- DC50 [6, 16]: 5.72 ± 0.157 µM

Compound: CN[C@@H](C)C(=O)N[C@H](C(=O)N1C[C@@H](O)C[C@H]1Cc1c(Cc2[nH]c3cc(F)ccc3c2C[C@@H]2C[C@H](O)CN2C(=O)[C@@H](NC(=O)[C@H](C)NC)C(C)(C)C)[nH]c2cc(F)ccc12)C(C)(C)C [(13)]
- Inhibition of DAP-mediated NF-κB-luc, % Inhibition [2]: No inhibition
- Inhibition of MDP-mediated NF-κB-luc, % Inhibition [3]: No inhibition

Compound: CN[C@@H](C)C(=O)N[C@H](C(=O)N1C[C@@H](O)C[C@H]1Cc1c(Cc2[nH]c3cc(F)ccc3c2C[C@@H]2C[C@H](O)CN2C(=O)[C@@H](NC(=O)[C@H](C)NC)C(C)(C)C)[nH]c2cc(F)ccc12)C(C)(C)C [(12)]
- Kd ([1]; read-out: XIAP BIR3 Kd): < 0.001 µM
- Inhibition of DAP-mediated NF-κB-luc, % Inhibition [2]: 99 (+/−2) %
- Inhibition of MDP-mediated NF-κB-luc, % Inhibition [3]: 98 (+/−2) %

Compound: CC[C@@H](NC(=O)[C@@H](C)NC)C(=O)N1C[C@H](O)C[C@@H]1Cc1c(-c2[nH]c3cc(F)ccc3c2C[C@H]2C[C@@H](O)CN2C(=O)[C@@H](CC)NC(=O)[C@@H](C)NC)[nH]c2cc(F)ccc12 [compound 5, ent-birinapant]
- DC50 [4]: > 10 µM
- EC50 [5]: > 10 µM
- DC50 [6, 16]: > 10 µM

Compound: CN[C@@H](C)C(=O)N[C@H](C(=O)N1C[C@@H](O)C[C@H]1Cc1c(Cc2[nH]c3cc(F)ccc3c2C[C@@H]2C[C@H](O)CN2C(=O)[C@@H](NC(=O)[C@H](C)NC)C(C)(C)C)[nH]c2cc(F)ccc12)C(C)(C)C [(14)]
- Inhibition of DAP-mediated NF-κB-luc, % Inhibition [2]: 74 (+/−14) %
- Inhibition of MDP-mediated NF-κB-luc, % Inhibition [3]: 86 (+/−9) %
